ChEMBL document CHEMBL5260810, “Inhibition of bromodomain-containing protein 9 for the prevention of epigenetically-defined drug resistance” (Bioorg Med Chem Lett, 2017)
Activity calls are given as the source filed them. The calls are words filed in the database; no cut-off is given here.

Columns and labels:
PC-9 [1] = test: Cytotoxicity against human PC-9 cells assessed as decrease in cell number at 1 uM supplemented with fresh medium containing compound every 3 days for 9 days by Beckman Coulter counting method; assay type: functional; set-up: scale not given: the % may be the effect or the level left; details: time 3 day
[2] = molecular target: T1, Bromodomain-containing protein 4 (Homo sapiens, UniProt O60885); test: Displacement of biotinylated small-molecule ligand from recombinant His-tagged BRD4 bromodomain 1 (unknown origin) measured after 10 mins by TR-FRET assay
[3] = molecular target: T1, Bromodomain-containing protein 4; test: Displacement of biotinylated small-molecule ligand from recombinant His-tagged BRD4 bromodomain 2 (unknown origin) measured after 10 mins by TR-FRET assay
[4] = molecular target: Chromatin remodeling regulator CECR2 (Homo sapiens, UniProt Q9BXF3); test: Displacement of biotinylated small-molecule ligand from recombinant His-tagged CECR2 (unknown origin) measured after 10 mins by TR-FRET assay
[5] = molecular target: Transcription initiation factor TFIID subunit 1 (Homo sapiens, UniProt P21675); test: Displacement of biotinylated small-molecule ligand from recombinant His-tagged TAF1 bromodomain 2 (unknown origin) measured after 10 mins by TR-FRET assay
PC-9 [6] = test: Cytotoxicity against human PC-9 cells assessed as decrease in cell number at 50 nM supplemented with fresh medium containing compound every 3 days for 9 days by Beckman Coulter counting method; assay type: functional, cell-based; details: time 3.0 day
PC-9 [7] = test: Cytotoxicity against human PC-9 cells assessed as decrease in drug tolerant population at 50 nM supplemented with fresh medium containing compound every 3 days for 9 days in presence of erlotinib by Beckman Coulter counting method; assay type: functional, cell-based; details: time 9.0 day

Sequence of Transcription initiation factor TFIID subunit 1 (P21675 whole entry): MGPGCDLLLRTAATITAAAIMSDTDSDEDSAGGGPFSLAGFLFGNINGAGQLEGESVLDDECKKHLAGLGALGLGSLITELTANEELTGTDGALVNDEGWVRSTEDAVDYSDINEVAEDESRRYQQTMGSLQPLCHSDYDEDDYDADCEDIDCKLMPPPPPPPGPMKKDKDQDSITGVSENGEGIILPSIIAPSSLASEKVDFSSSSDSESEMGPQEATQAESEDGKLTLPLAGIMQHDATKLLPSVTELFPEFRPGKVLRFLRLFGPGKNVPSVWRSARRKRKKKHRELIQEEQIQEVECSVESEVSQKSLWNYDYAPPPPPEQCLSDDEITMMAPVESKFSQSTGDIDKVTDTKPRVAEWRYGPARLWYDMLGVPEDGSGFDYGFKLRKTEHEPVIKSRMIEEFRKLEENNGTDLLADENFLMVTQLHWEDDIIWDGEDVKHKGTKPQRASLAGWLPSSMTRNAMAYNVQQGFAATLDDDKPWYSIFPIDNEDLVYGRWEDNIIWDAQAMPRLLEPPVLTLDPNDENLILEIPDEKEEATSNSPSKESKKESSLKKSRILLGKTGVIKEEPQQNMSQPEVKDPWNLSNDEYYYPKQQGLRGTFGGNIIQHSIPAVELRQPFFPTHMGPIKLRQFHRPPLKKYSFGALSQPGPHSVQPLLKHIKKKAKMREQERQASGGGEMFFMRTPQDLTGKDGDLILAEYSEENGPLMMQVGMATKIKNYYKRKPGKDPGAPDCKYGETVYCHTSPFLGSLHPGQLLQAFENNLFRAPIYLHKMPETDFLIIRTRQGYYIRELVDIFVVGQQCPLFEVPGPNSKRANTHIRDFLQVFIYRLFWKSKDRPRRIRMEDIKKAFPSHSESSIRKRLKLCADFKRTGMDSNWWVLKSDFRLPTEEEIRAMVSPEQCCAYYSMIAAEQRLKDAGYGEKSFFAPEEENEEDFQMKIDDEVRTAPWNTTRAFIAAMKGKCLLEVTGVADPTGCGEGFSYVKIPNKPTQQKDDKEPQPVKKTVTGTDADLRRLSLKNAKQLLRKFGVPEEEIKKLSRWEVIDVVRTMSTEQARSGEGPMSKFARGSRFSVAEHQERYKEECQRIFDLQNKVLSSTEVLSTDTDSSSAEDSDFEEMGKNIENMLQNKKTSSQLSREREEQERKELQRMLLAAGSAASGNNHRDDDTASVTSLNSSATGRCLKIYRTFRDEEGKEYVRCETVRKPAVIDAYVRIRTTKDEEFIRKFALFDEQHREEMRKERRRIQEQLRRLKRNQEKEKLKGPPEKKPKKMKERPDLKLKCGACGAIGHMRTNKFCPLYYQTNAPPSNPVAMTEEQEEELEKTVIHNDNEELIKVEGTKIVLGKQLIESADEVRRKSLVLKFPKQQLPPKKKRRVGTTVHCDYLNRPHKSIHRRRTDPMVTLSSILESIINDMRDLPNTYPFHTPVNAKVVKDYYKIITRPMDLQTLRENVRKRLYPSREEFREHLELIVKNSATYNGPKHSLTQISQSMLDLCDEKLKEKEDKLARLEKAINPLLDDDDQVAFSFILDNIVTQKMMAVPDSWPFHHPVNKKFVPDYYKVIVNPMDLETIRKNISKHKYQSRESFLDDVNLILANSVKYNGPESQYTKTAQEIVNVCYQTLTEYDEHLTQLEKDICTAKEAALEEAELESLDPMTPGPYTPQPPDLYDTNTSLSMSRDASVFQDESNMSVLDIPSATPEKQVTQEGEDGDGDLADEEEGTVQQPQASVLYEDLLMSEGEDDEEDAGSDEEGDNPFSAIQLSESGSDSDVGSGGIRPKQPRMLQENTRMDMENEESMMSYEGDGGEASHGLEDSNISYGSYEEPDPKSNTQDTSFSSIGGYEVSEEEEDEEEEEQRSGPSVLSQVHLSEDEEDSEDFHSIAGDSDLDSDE
Sequence of Chromatin remodeling regulator CECR2 (Q9BXF3 whole entry): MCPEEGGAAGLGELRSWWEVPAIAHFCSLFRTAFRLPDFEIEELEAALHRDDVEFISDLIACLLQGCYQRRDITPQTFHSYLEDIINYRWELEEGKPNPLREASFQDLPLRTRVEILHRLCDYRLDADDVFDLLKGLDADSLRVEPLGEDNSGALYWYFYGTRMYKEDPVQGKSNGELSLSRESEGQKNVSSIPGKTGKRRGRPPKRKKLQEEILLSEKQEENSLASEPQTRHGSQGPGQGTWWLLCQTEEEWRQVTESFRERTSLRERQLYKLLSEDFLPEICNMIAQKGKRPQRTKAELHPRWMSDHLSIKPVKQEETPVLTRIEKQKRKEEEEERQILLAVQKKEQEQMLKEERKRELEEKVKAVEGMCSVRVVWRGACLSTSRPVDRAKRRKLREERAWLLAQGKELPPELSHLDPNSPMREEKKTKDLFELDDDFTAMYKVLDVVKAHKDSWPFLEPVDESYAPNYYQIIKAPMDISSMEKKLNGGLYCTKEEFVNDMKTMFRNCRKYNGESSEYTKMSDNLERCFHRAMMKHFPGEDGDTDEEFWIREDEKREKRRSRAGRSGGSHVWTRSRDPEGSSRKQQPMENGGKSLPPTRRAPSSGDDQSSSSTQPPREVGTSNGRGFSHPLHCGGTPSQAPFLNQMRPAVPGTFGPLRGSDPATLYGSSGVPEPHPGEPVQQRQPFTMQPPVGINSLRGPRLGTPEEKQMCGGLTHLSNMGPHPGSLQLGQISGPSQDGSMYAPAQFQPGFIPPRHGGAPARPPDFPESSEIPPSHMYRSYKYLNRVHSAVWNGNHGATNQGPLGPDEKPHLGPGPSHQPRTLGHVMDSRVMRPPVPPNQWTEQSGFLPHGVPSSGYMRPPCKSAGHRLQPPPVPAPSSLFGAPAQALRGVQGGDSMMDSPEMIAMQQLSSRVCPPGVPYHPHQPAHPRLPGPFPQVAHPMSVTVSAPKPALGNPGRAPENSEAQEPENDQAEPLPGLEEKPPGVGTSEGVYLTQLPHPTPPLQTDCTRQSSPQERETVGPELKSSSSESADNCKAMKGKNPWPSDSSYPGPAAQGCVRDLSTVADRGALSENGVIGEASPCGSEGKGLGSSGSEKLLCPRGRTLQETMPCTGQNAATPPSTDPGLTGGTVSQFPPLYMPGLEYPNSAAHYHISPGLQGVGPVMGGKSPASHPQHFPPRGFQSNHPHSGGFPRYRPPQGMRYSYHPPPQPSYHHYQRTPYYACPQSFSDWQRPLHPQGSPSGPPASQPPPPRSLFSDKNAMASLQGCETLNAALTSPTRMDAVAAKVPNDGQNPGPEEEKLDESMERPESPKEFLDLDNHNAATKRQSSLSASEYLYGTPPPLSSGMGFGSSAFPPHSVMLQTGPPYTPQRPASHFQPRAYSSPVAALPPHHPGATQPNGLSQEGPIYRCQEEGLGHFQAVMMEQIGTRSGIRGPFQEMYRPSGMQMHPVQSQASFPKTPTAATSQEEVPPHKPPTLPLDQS

IC50 [2] [µM]	IC50 [3] [µM]	IC50 [4] [µM]	IC50 [5] [µM]	Compound	Activity (PC-9 [1]) [%]	Activity (PC-9 [6])	Activity (PC-9 [7])
				C#Cc1cccc(Nc2ncnc3cc(OCCOC)c(OCCOC)cc23)c1 [ERLOTINIB]	>98		
6	14.4	1	2.8	C/C=C/Cn1cc(-c2ccc(C(=O)N3CCOCC3)c(C)c2)c2cc(C)[nH]c2c1=O			
3.5	12.3	0.46	1.4	C/C=C/Cn1cc(-c2ccc(C(=O)N3CCOCC3)c(Cl)c2)c2cc(C)[nH]c2c1=O			
3.3	17.4	1	1.7	C/C=C/Cn1cc(-c2ccc(C(=O)N3CCOCC3)c(OC)c2)c2cc(C)[nH]c2c1=O			
4.2	13.5	0.37	0.52	C/C=C/Cn1cc(-c2ccc(C(=O)N3CCOCC3)c(C#N)c2)c2cc(C)[nH]c2c1=O			
1.6	6.7	0.81	0.75	C/C=C/Cn1cc(-c2ccc(C(=O)N3CCOCC3)cc2)c2cc(C)[nH]c2c1=O			
				CC(/C=C/C(=O)NO)=C\[C@@H](C)C(=O)c1ccc(N(C)C)cc1		inactive	Active

Compound	IC50 [2] [µM]	IC50 [3] [µM]	IC50 [4] [µM]	IC50 [5] [µM]	Activity (PC-9 [1]) [%]	Activity (PC-9 [6])	Activity (PC-9 [7])
C/C=C/Cn1cc(-c2ccc(C(C)(C)O)cc2)c2cc[nH]c2c1=O	3.3	6.1	4.7	5.5			
